According to US8642559B2, “C-terminal domain truncation of mGluR1α by calpain and uses thereof” (priority 2006, dated 2014):

Experiments:
Format in all cases: cell-based
mGluR1α = assay: Glutamate/NMDA-induced C-terminal truncation of mGluR1α in cultured cortical neurons (immunoblot)
Excerpt: Total cell lysates were separated by SDS-PAGE and probed with an antibody against the carboxyl terminus (residue 1142-1160) of mGluR1α. […] Total cell lysates were probed with an anti-myc antibody. […] Total cell lysates were probed with antibodies against mGluR5, G1uR2/3 and VGluT1 respectively.
Total cell lysate was collected immediately after treatment and subjected to SDS-PAGE and immunoblotting with an antibody against the carboxyl terminus (residues 1142-1160) of mGluR1α (FIG. 2A). […] Neurons were transfected with a calcium phosphate precipitation method modified for high transfection rate (Jian et al., Gene Ther 11:1301-1311, 2004).
Cortical neurons were treated with NMDA at the indicated concentrations for 1 h or treated with NMDA (10 μM) for the indicated times. Total cell lysates were separated by SDS-PAGE and probed with antibodies against mGluR1α1142-1160, Results were normalized over control values and are means±s.e.m. of 4 experiments.
To determine whether activation of mGluR1α itself was required for the truncation, two distinct mGluR1α antagonists were applied.
To further characterize NMDA-induced mGluR1α truncation, the concentration- and time-dependencies of the effects of NMDA were studied. Cortical neurons were first incubated with different concentrations of NMDA for a fixed period of time (1 hour) (FIG. 3F). […] In a following experiment, cortical neurons were incubated with 10 μM NMDA for different durations ranging from 1 to 60 min (FIG. 3G).
Cortical neurons were treated with NMDA (10 μM, 1 h). Total cell lysates were separated by SDS-PAGE and probed with antibodies against spectrin and mGluR1α1142-1160, respectively. Only the degradation bands of spectrin (spectrin DB, at ˜145 KD) are shown. […] In FIG. 4C, purified myc-mGluR1α was digested with μ-calpain at the indicated concentrations (U/ml) for 30 min. The digested material was processed for SDS-PAGE and subjected to silver staining or immunoblots with anti-myc or anti-mGluR1α1142-1160 antibodies. […] The 1st lane was the myc-mGluR1α immunoprecipitated from 293 cells; the 2nd and 3rd lanes were immunoprecipitated myc-mGluR1α digested with indicated concentration of calpain. […] FIG. 4F is the alignment of mGluR1 (902-941) and mGluR5 (889-927) surrounding the calpain cleavage site.
In this set of experiments, we determined which protease(s) mediated NMDA-induced truncation of mGluR1α. […] Cortical neurons were pretreated with a calpain inhibitor, the cell-permeable calpain-inhibitor III, or the caspase inhibitor cpm-VAD-CHO for 2 hours and then incubated in the absence or presence of 100 µM NMDA for 1 hour. […] To further confirm calpain activation by NMDA under our experimental conditions, we determined the levels of the calpain-specific spectrin degradation fragments.

myc-mGluR1α [1] = assay: Targeting of myc-mGluR1α in transfected cortical neurons after NMDA (immunostaining); details: NMDA 50 μM, 1 hour; 124 out of 367 neurons
Description: In FIG. 7A, cortical neurons were co-transfected with DsRED and myc-mGluR1α. After 48 h, neurons were fixed and stained with anti-myc and anti-DsRED antibodies. Some of the neurons were pre-treated with NMDA (50 μM, 1 h), and recovered for 3 h after washing out NMDA before fixation. Myc-mGluR1α (upper panel) was absent in axons (arrowhead) under control conditions. After pre-treatment with NMDA (lower panel), staining of myc-mGluR1α appeared in the proximal segment of axons. In FIG. 7B, cortical neurons were co-transfected with DsRED and myc-mGluR1α. After 48 h, neurons were fixed and stained with anti-DsRED and anti-mGluR1α1142-1160 antibodies with (lower panel) or without (upper panel) pretreatment with NMDA. Staining for mGluR1α was absent from axons in both conditions. In FIG. 7C, cortical neurons were co-transfected with DsRED and myc-mGluR1α936Δ. After 48 h, neurons were fixed and stained with anti-myc and anti-DsRED antibodies. […]
Previous studies have shown that the C-terminus domain of mGluR1α is crucial for its dendritic localization. […] But in ˜34% of neurons treated with NMDA (124 out of 367 neurons counted), the N-terminal fragment of wild-type mGluR1α could be detected in axons, especially in the proximal segment, whereas immunoreactivity against the C-terminus of mGluR1α was still restricted to dendrites (FIG. 7B).

cortical neurons = assay: NMDA/DHPG neuronal toxicity in cortical neurons (EthD-1/Calcein AM live/dead)
Excerpt: In FIGS. 8a and b, cortical neurons were co-transfected with green fluorescent protein (GFP) and vector DNA, myc-mGluR1α or myc-mGluR1α936Δ, respectively. […] Twelve hours later, neurons were stained with EthD-1 to label dead cells. Arrowheads in FIG. 8a indicate EthD-1 positive GFP-expressing neurons. * p<0.05. FIGS. 8c and d are representative photos and bar graphs showing differential roles of endogenous mGluR1 in neuronal toxicity before and after NMDA-induced truncation. Cortical neurons were treated as indicated and were stained with EthD-1 (for dead cells) and calcein AM (for live cells) 24 hours later. * p<0.001.
We then tested whether calpain-mediated truncation of endogenous mGluR1α also alters its roles in excitotoxicity. We used NMDA to elicit mGluR1α truncation and evaluated the roles of mGluR1 in neuronal toxicity by applying DHPG before and after truncation. Fourteen DIV cortical neurons cultured on 18×18 mm coverslips were divided into 6 groups, which received the following treatments, respectively: 1) “Control”: vehicle; 2) “NMDA”: 100 μM NMDA for 1 hour; 3) “DHPG before NMDA”: DHPG, 100 μM, for 1 hour, followed by 100 μM NMDA for 1 hour; 4) “DHPG after NMDA”: NMDA, 100 μM, for 1 hour, followed by 100 μM DHPG for 1 hour; 5) “DHPG+LY before NMDA”: 100 μM DHPG was co-applied with 100 μM LY367385 for 1 hour and followed by 100 μM NMDA for 1 hour; 6) “DHPG+LY after NMDA”: NMDA 100 μM for 1 hour, followed by 100 μM DHPG co-applied with 100 μM LY367385. Twenty-four hours after treatment, all neurons were stained for 20 minutes with 0.5 μM EthD-1 to label dead cells and 2 μM Calcein AM to label live cells. After three washes with culture medium, coverslips were mounted and one microscopy photo was immediately taken from the center area of each coverslip. EthD-1 and Calcein AM positive cells on each photo were then counted. The percentage of cell death was calculated as the number of EthD-1 positive cell/(number of EthD-1 positive cell+number of Calcein AM positive cell)*100%.

myc-mGluR1α [2] = molecular target: T1, myc-mGluR1α (Rattus norvegicus, UniProt P23385); assay: DHPG-induced calcium transients in HEK293 cells transfected with myc-mGluR1α (calcium imaging); details: 100 μM DHPG; myc-mGluR1α-transfected HEK293 cells
Excerpt: (§1) In this set of experiments, HEK293 cells were co-transfected with DsRed (red fluorescent protein) and wild-type myc-mGluR1α or truncated myc-mGluR1α936Δ. The mGluRI agonist DHPG was used to induce mGluR1α-mediated calcium transients. In FIG. 5A, photos in the left show the expression of DsRed, labeling transfected cells; photos in the middle illustrate the fluorescent signal from the calcium indicator Oregon green 488 BAPTA-1 AM before and after DHPG application; photos in the right are obtained by subtracting “before DHPG” from “after DHPG”, thus representing DHPG-induced calcium transients.
(§2) The main signaling mechanism activated by mGluR1α consists of PI hydrolysis through G-protein and phospholipase C, which eventually leads to calcium release from internal calcium stores. Therefore we first performed calcium imaging to determine whether mGluR1α remains functional following C-terminal truncation. Wild-type mGluR1 (myc-mGluR1α) or the truncated form (myc-mGluR1α936Δ) was cotransfected with DsRed into HEK293 cells. Forty-eight hours after transfection, cells were loaded with a calcium reporter, Oregon green 488 BAPTA-1 AM (0.63% in extracellular solution).

myc-mGluR1α [3] = assay: as above; details: 100 μM DHPG; untransfected cells
Excerpt: as §1, §2

myc-mGluR1α [4] = molecular target: T1, myc-mGluR1α; assay: DHPG-induced whole-cell currents in HEK293 cells transfected with myc-mGluR1α; details: 100 μM DHPG
Description: (§3) Representative current traces recorded from HEK293 cells transfected with either myc-mGluR1α (left panel) or myc-mGluR1α936Δ (right panel) and GIRK1, GIRK2 (top) or TRPC1 (bottom). DHPG (100 μM in extracellular solution) was applied using a fast perfusion system for the duration indicated by the scale bars. Each trace is the average of 5 continuous sweeps. The bar graphs represent the means±S.E.M. of DHPG-induced current amplitude recorded in cells transfected with myc-mGluR1α or myc-mGluR1α936Δplus GIRK1, GIRK2 (top right) or TRPC1 (bottom right) (n=3-7). In FIG. 6B, cortical neurons were pre-treated with NMDA (50 1μM, 1 h). Two hours after washing NMDA, neurons were treated with the mGluR1 agonist DHPG (50 μM) for 10 min in the absence or presence of LY367385. Total cell lysates were collected and probed with anti-Phospho Akt (Ser473) antibody.
(§4) Because activation of mGluR1α can also stimulate non-selective cation excitatory postsynaptic conductances (EPSCs), we therefore analyzed mGluR1α-dependent currents before and after calpain-mediated truncation. We transfected HEK293 cells with either myc-mGluR1α or myc-mGluR1α936Δ plus GIRK1, GIRK2 or TRPC1.

myc-mGluR1α936Δ = myc-mGluR1α936Δ (Rattus norvegicus, UniProt P23385); assay: DHPG-induced whole-cell currents in HEK293 cells transfected with myc-mGluR1α936Δ; details: 100 μM DHPG
Description: as §3, §4

Phospho Akt (Ser473) = assay: Akt phosphorylation (Ser473) in cortical neurons (Western blot); details: DHPG 50 μM, 10 min
Description: as §3, with “antibody. Without pretreatment with NMDA, DHPG increased the levels of Phospho-Akt (* p<0.05), an effect blocked by LY367385.” for “antibody.”
As reported in previous studies, mGluR1 activation can stimulate the PI3K-Akt signaling pathway through the mGluRI-Homer-PIEL-PI3K signaling complex. Since the Homer-binding domain of mGluR1α is located in the extreme C-terminus, which is removed after calpain-mediated truncation, it was interesting to determine whether this signaling mechanism remained functional. We first induced mGluR1α truncation by treating cortical neurons with 50 μM NMDA for 1 hour. Two hours after washing out NMDA, neurons were incubated with the mGluRI agonist DHPG (50 μM) for 10 min. Neurons were then lysed and levels of phosphorylated Akt were determined on Western blots. Consistent with a previous study, in cortical neurons that were not pre-treated with NMDA, DHPG induced an increase in phosphorylated Akt levels (p<0.05, n=4, Student's t-test for Control vs. DHPG), an effect which was blocked by the mGluR1 selective antagonist LY367385 (p<0.05, n=4, for DHPG+LY367385 vs. DHPG) (FIG. 6B). […] Thus, mGluR1α-PI3K-Akt signaling pathway was disrupted by calpain-mediated mGluR1α truncation.

T1 sequence (P23385 19-1199): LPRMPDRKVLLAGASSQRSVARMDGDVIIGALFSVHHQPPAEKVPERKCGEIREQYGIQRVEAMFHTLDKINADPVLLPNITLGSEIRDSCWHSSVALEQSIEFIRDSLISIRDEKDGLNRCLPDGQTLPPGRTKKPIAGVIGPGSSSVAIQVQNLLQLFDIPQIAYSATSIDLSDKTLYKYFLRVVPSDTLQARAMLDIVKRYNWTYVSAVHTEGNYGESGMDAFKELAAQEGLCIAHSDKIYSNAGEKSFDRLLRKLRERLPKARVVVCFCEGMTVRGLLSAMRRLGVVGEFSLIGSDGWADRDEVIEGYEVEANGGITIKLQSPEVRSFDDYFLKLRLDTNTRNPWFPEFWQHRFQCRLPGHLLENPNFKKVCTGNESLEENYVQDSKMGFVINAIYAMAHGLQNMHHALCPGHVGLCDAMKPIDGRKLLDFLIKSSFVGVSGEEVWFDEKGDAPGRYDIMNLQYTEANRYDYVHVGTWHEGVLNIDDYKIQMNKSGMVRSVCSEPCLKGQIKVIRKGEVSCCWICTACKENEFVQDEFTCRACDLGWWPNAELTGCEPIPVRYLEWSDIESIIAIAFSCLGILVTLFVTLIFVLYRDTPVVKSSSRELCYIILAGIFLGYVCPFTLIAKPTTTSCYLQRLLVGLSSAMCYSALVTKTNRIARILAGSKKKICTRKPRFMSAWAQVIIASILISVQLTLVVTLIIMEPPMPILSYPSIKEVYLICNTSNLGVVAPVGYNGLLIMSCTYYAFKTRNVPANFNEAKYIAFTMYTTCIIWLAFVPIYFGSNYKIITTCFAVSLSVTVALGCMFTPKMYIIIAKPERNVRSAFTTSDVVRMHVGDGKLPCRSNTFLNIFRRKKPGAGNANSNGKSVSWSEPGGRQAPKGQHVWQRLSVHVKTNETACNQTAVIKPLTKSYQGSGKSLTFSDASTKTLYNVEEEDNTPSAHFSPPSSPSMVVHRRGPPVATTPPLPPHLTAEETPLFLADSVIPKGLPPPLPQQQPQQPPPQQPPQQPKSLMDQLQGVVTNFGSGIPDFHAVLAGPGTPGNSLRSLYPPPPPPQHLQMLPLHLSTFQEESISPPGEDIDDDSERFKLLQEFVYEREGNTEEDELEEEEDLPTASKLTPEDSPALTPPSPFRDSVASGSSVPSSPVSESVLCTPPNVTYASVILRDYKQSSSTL
myc-mGluR1α936Δ, sequence (P23385 19-936 limits assumed, stated change not applied): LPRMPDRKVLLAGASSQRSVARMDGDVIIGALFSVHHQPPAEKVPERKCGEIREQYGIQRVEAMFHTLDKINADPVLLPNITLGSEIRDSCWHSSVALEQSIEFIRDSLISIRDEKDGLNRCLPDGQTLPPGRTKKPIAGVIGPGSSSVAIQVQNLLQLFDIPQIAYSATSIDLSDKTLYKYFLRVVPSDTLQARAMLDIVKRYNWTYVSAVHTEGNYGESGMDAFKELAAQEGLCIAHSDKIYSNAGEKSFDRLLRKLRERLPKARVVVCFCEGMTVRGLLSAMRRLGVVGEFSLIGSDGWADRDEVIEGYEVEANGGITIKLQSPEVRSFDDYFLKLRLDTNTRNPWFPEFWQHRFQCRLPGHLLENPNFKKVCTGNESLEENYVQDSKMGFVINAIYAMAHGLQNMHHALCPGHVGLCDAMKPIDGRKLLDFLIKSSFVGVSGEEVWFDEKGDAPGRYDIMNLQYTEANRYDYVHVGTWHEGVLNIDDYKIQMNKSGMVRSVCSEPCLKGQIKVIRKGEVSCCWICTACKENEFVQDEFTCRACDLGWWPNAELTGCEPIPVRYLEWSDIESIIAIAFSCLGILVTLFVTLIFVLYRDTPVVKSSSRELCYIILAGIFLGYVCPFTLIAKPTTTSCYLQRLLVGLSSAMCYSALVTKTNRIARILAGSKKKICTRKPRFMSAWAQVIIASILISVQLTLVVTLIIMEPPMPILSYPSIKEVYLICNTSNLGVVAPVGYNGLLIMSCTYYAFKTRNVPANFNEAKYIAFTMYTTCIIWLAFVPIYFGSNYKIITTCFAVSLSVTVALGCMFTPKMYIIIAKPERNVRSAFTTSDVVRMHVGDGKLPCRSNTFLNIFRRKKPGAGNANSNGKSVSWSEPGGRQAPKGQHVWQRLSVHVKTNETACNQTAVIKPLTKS

| SMILES | minimum time required to induce truncation (mGluR1α; 10 μM NMDA) [min] | treatment time after which truncation was maximal (mGluR1α; 10 μM NMDA) [min] | EC50 (mGluR1α; 1 hour incubation) [µM] | minimum concentration required to induce a significant mGluR1α truncation (mGluR1α; 1 hour incubation) [µM] | neurons with N-terminal fragment of mGluR1α detected in axons (myc-mGluR1α [1]) [%] | cell death (cortical neurons; 100 μM NMDA for 1 hour, 24 hours after treatment) [%] | calcium transient, max. ΔF/F (myc-mGluR1α [2]) [%] | change in fluorescent calcium signals (myc-mGluR1α [3]) | average amplitude of DHPG-induced whole-cell current (myc-mGluR1α [4]; myc-mGluR1α/GIRK1,2-transfected cells) [pA] | mean amplitude of DHPG-induced whole-cell current (myc-mGluR1α [4]; myc-mGluR1α/TRPC1-transfected cells) [pA] | mean amplitude of DHPG-induced whole-cell current (myc-mGluR1α936Δ; myc-mGluR1α936Δ/GIRK1,2-transfected cells) [pA] | mean amplitude of DHPG-induced whole-cell current (myc-mGluR1α936Δ; myc-mGluR1α936Δ/TRPC1-transfected cells) [pA] | phosphorylated Akt levels (Phospho Akt (Ser473); 2 h after NMDA 50 μM 1 h pre-treatment) | phosphorylated Akt levels (Phospho Akt (Ser473); neurons not pre-treated with NMDA) | cell death (cortical neurons; DHPG 100 μM 1 hour after 100 μM NMDA 1 hour, 24 hours after) [%] | cell death (cortical neurons; DHPG 100 μM 1 hour before 100 μM NMDA 1 hour, 24 hours after) [%] |
| --- | --- | --- | --- | --- | --- | --- | --- | --- | --- | --- | --- | --- | --- | --- | --- | --- |
| CN[C@H](CC(=O)O)C(=O)O [NMDA] | 5 | 20 | ~10 | 10 | ~34 | 37 |  |  |  |  |  |  |  |  |  |  |
| N[C@H](C(=O)O)c1cc(O)cc(O)c1 [DHPG] |  |  |  |  |  |  | 30.6±4.2 | no change | −24.2±6.3 | −36.7±9.6 | −1.4±0.8 | −9.7±6.8 | failed to increase | increase | 54 | 29 |
